In data set [1] the target is T1, sst2 (Homo sapiens, UniProt P30874). Nature of the data set: Calcium release assay in HEK-sst2 cells (Fluo-4NW). The arrangement: expressed in transfected cells; host or cells: HEK293 (HEK-sst2). The data set is classed as cell-based. The conditions noted are these: n ≧ 2.
Target sequence in this assay (P30874 whole entry): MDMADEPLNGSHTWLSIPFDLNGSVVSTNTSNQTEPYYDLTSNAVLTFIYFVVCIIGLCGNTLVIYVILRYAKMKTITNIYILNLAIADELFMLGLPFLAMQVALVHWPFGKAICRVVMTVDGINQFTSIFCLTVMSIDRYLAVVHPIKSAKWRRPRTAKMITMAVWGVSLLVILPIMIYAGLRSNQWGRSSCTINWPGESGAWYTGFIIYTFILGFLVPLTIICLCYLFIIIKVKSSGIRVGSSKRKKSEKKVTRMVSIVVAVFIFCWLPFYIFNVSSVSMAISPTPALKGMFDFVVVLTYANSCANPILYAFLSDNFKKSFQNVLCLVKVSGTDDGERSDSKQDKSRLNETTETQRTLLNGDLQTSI
Data set [2] has as its system HEK-sst2 tumors. Nature of the data set: In vivo biodistribution of radiolabeled peptides in nude mice bearing HEK-sst2 tumors.
Protocol: (§1) The following protocol was used to determine biodistribution
(§2) Confirmation that the transfected tumors were indeed expressing solely sst2 was obtained in resected tumor samples tested in vitro with somatostatin receptor autoradiography using subtype selective ligands.
(§3) The biodistribution of was studied at 4 h or 24 h after injection. The organs of interest were collected, blotted dry, weighed, their radioactivity measured and the percentage of injected activity per gram (% IA/g) calculated.
In data set [3] the target is T7-epitope-tagged human sst2 (Homo sapiens, UniProt P30874). Nature of the data set: Quantitative assay for sst2 internalization (ELISA) in HEK-sst2 cells. The conditions noted are these: FIG. 3. The data set is classed as cell-based. A general note: An ELISA detects its analyte on a solid surface through an enzyme-linked reagent.
Protocol: Quantitative assay for sst2 internalization (ELISA) Receptor internalization was determined using an ELISA to quantitate T7-epitope-tagged human sst2 on the cell surface. HEK-sst2 cells were seeded on poly-D-lysine (20 μg/mL) coated 24-well plates (250,000 cells per well) in growth medium and cultured for 1 day at 37° C. and 5% CO2. […] After washing with DMEM-LH to remove unbound antibody, cells were incubated for 30 min at 37° C. and 5% CO2 either without or with the ligands added at the concentrations indicated. Incubations were terminated by placing the plates in an ice bath. Cells were then washed twice with cold PBS and fixed for 10 min at room temperature with 3% paraformaldehyde in PBS (pH 7.4). […] After 3 additional washes with PBS, antibody binding was measured by adding 0.3 mL substrate mix for horseradish peroxidase (ABTS). The OD405 was measured after an approximately 30 min incubation at room temperature. The amount of sst2 remaining at the cell surface after ligand treatment was calculated as the absorbance measured in treated cells expressed as a percentage of the absorbance in untreated cells. Nonspecific absorbance was determined in experiments in which HEK293-sst2 cells were incubated without the anti-T7 antibody. […]
Data set [4] has as its target T2, human sst2A receptor (Homo sapiens, UniProt P30874).
T2 construct: expressed in transfected cells; host or cells: HEK293 (HEK-sst2)
Nature of the data set: Immunofluorescence-based sst2 internalization assay in HEK-sst2 cells. The class given is cell-based. Particulars: n ≧ 2. Summed up: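 HEK-sst2 cells treated with vehicle, 100 nM [Tyr^3]-octreotide, octreotide plus 100-fold excess test analogue, or test analogue alone at 10 μM. Receptor internalization visualized by immunofluorescence microscopy with sst2-specific antibody R2-88.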

Data set [5] in a line: in vivo. Particulars: female, athymic nude, mouse, iv, total radioactivity, biodistribution.
Protocol: as §1, §2, §3
For data set [6], the system named is HEK-sst2 tumors. The conditions noted are these: female, athymic nude, mouse, in vivo, iv, 4 h.
Protocol: as §1, §2, §3
The target in data set [7] is T1, sst2. Particulars: cited from earlier work.
Target sequence in this assay (P30874 whole entry, species assumed): as the sequence (P30874 whole entry) above
Data set [8] deals with sst3 (Homo sapiens, UniProt P32745). Particulars: literature value compared with own IC50; read-out: reported value at sst3 (Hocart et al.); cited from earlier work.
Data set [9] concerns the target T3, hSSTR4 (Homo sapiens, UniProt P31391).
T3 construct: expressed in transfected cells; host or cells: CHO-K1 or CCL39 cells
Nature of the data set: Receptor autoradiography, displacement of 125I-[Leu8,D-Trp22,Tyr25]-SRIF-28 from membrane pellet sections. The class given is binding. The conditions noted are these: Table 3; mean ± SEM when N ≧ 3; read-out: sst4 binding affinity (IC50). A general note: Loss of bound radioactivity is the signal in a displacement assay; it reports binding, not function.

Data set [10] has as its target T4, hSSTR1 (Homo sapiens, UniProt P30872).
T4 construct: expressed in transfected cells; host or cells: CHO-K1 or CCL39 cells
The data set is described as above. The class given is binding. The conditions noted are these: Table 3; mean ± SEM when N ≧ 3; read-out: sst1 binding affinity (IC50).

Data set [11] addresses T5, hSSTR2 (Homo sapiens, UniProt P30874).
T5 construct: expressed in transfected cells; host or cells: CHO-K1 or CCL39 cells
Described as above. The conditions noted are these: Table 3; mean ± SEM when N ≧ 3; read-out: sst2 binding affinity (IC50). The data set is classed as binding.

Data set [12] deals with T6, hSSTR3 (Homo sapiens, UniProt P32745).
T6 construct: expressed in transfected cells; host or cells: CHO-K1 or CCL39 cells
The data set is described as above. The data set is classed as binding. Particulars: Table 3; mean ± SEM when N ≧ 3; read-out: sst3 binding affinity (IC50).

The source of these data is patent US8691761B2, “Somatostatin receptor 2 antagonists” (priority 2006, dated 2014).

“Also recorded” adds a separate entry of the source. Bridge positions count the residues as written; N and C are the ends. Square brackets hold non-standard residues; d marks the D form. Peptide text beside a SMILES is read from it. * marks the point of attachment. DOTA = O=C(O)CN1CCN(CC(=O)O)CCN(CC(=O)*)CCN(CC(=O)O)CC1; dPhe(4-NHCONH2) = NC(=O)Nc1ccc(C[C@@H](N)C(=O)O)cc1; Dihydroorotyl(S) = O=C1C[C@@H](C(=O)*)NC(=O)N1; Phe(4-Cl) = N[C@@H](Cc1ccc(Cl)cc1)C(=O)O; Phe(4-NH2) = Nc1ccc(C[C@H](N)C(=O)O)cc1; 2Nal = N[C@@H](Cc1ccc2ccccc2c1)C(=O)O; NMeK = CN[C@@H](CCCCN)C(=O)O Bounds are passed on as bounds.

One may read the tissue uptake as the share of the injected amount in each gram of the tissue.

T2 sequence (P30874 whole entry): as above
T3 sequence (P31391 whole entry): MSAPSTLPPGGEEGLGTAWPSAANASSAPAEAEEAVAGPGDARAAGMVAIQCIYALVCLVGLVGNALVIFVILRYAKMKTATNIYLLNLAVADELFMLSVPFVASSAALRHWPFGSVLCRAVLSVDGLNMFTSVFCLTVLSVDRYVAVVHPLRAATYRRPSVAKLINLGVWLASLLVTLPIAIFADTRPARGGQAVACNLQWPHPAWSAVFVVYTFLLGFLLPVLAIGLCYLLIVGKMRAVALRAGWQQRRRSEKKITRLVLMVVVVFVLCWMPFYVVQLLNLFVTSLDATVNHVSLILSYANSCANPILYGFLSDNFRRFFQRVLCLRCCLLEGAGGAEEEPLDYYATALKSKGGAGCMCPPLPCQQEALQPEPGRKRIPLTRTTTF
T4 sequence (P30872 whole entry): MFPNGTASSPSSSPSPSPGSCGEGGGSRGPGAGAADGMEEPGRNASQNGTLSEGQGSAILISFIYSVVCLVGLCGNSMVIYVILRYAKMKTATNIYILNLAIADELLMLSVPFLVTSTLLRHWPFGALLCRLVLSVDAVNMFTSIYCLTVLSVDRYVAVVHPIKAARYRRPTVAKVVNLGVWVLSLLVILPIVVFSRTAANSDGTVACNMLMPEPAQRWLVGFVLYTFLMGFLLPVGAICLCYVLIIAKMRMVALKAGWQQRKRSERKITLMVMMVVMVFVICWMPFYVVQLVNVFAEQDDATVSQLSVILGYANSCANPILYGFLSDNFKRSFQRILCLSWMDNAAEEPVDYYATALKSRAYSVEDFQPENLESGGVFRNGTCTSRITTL
T5 sequence (P30874 whole entry): as the sequence (P30874 whole entry) above
Sequence of T7-epitope-tagged human sst2 (P30874 whole entry): as above
T6 sequence (P32745 whole entry): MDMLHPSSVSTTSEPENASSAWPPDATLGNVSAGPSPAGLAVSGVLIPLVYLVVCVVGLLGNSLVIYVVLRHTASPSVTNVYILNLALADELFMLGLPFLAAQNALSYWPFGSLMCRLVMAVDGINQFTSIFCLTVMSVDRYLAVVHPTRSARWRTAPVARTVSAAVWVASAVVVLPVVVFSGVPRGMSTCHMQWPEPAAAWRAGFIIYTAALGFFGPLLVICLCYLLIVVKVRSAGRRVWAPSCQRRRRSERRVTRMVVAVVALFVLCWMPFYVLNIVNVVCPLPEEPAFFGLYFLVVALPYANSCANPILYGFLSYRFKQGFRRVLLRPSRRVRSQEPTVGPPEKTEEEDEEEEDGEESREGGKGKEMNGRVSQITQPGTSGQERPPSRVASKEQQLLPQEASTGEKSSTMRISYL
Sequence of sst3 (P32745 whole entry, species assumed): as the sequence (P32745 whole entry) above

Turning to `C[C@@H](O)[C@@H]1NC(=O)[C@H](CCCCN)NC(=O)[C@@H](Cc2c[nH]c3ccccc23)NC(=O)[C@H](Cc2ccc(O)c(I)c2)NC(=O)[C@H](NC(=O)[C@H](Cc2ccc([N+](=O)[O-])cc2)NC(=O)CN2CCN(CC(=O)O)CCN(CC(=O)O)CCN(CC(=O)O)CC2)CSSC[C@@H](C(=O)N[C@H](Cc2ccc(O)cc2)C(N)=O)NC1=O` [Peptide No. 32, DOTA-pNO2Phe-c[DCys-ITyr-DTrp-Lys-Thr-Cys]-DTyr-NH2], the “Calcium release tested in vitro in HEK-sst2 cells (function)” value (from here on “Calcium release tested in vitro”) in data set [1] was “Antagonist”. Also, the “tumor to kidney ratio (in words)” value in [2] (mouse, in vivo) is “excellent tumor to kidney ratio”. The “function in the ELISA internalization assay” value in [3] is “antagonistic properties”. Moreover, the “sst2-internalization tested in vitro in HEK-sst2 cells (function)” value (from here on “sst2-internalization tested in vitro”) in [4] was “antagonistic property; also recorded: Antagonist”.
In the case of `C[C@@H](O)[C@@H]1NC(=O)[C@H](CCCCN)NC(=O)[C@@H](Cc2ccc(NC(N)=O)cc2)NC(=O)[C@H](Cc2ccc(NC(=O)[C@@H]3CC(=O)NC(=O)N3)cc2)NC(=O)[C@H](NC(=O)[C@H](Cc2ccc(Cl)cc2)NC(=O)CN2CCN(CC(=O)O)CCN(CC(=O)O)CCN(CC(=O)O)CC2)CSSC[C@@H](C(N)=O)NC1=O` [^111In-labelled Peptide No. 33, metal not drawn] ({DOTA}-[Phe(4-Cl)][dC][Phe(4-NH2)](Dihydroorotyl(S))[dPhe(4-NHCONH2)]KTC-NH2; disulfide 2-7), the tissue uptake at 4 h came to 0.23 %ID/g in [5] (adrenal); 0.12 %ID/g in [5] (blood); 0.04 %ID/g in data set [5] (bone); 0.05 %ID/g in [5] (heart); 0.32 %ID/g in data set [5] (liver); 0.02 %ID/g in [5] (muscle). Also, the tissue uptake at 4 h in data set [5] (pancreas) stood at 0.05 %ID/g; in [5] (pituitary), 0.14 %ID/g; in data set [5] (sst2 tumor), 0.22 %ID/g; in [5] (sst3 tumor) it was 0.14 %ID/g. Also, the “effect of excess unlabelled compound on binding in vivo” value in data set [2] (1000- or 2000-fold excess of unlabelled compound) is “inhibited binding”. In addition, the “biodistribution, intestine” value in data set [6] turned out to be 0.09 % IA/g. The “biodistribution, kidney” value in [6] stood at 10.3 % IA/g. Further, in [6], the “biodistribution, lung” value is on record as 0.21 % IA/g. The “biodistribution, spleen” value in data set [6] turned out to be 0.2 % IA/g. In addition, the “biodistribution, stomach” value in [6] came out at 0.12 % IA/g.
Take `C[C@@H](O)[C@@H]1NC(=O)[C@H](CCCCN)NC(=O)[C@@H](Cc2c[nH]c3ccccc23)NC(=O)[C@H](Cc2ccc(O)cc2)NC(=O)[C@H](NC(=O)[C@@H](N)Cc2ccc(Cl)cc2)CSSC[C@@H](C(=O)N[C@@H](Cc2ccc3ccccc3c2)C(N)=O)NC1=O` [compound 7, H2N-Cpa-c[DCys-Tyr-DTrp-Lys-Thr-Cys]-2Nal-NH2, reference compound] (H-[Phe(4-Cl)][dC]Y[dW]KTC[2Nal]-NH2; disulfide 2-7): the IC50 is 26 nM in data set [7] (literature value compared with own IC50, read-out: reported value at sst2 (Hocart et al.)) and 93 nM in data set [8]. Further, in data set [1], the “Calcium release tested in vitro” value is reported as “Antagonist”. Besides, the “sst2-internalization tested in vitro” value in [4] is reported as “Antagonist”.
Consider `C[C@@H](O)[C@@H]1NC(=O)[C@H](CCCCN)N(C)C(=O)[C@@H](Cc2c[nH]c3ccccc23)NC(=O)[C@H](Cc2ccc(O)cc2)NC(=O)[C@H](NC(=O)[C@@H](N)Cc2ccc(Cl)cc2)CSSC[C@@H](C(=O)N[C@@H](Cc2ccc3ccccc3c2)C(N)=O)NC1=O` [compound 8, H2N-Cpa-c[DCys-Tyr-DTrp-NMeLys-Thr-Cys]-2Nal-NH2, reference compound] (H-[Phe(4-Cl)][dC]Y[dW][NMeK]TC[2Nal]-NH2; disulfide 2-7), for which, in [7], the “increase of binding affinity at sst2 versus 7 in Hocart et al. assay” value is on record as 5 fold. The IC50 in [9] is 715 ± 137 nM; in data set [10] it was > 1000 nM; in data set [11], 10 ± 3.5 nM; in data set [12], 61 ± 14 nM. The “Calcium release tested in vitro” value in data set [1] is recorded as “Antagonist”. Besides, in [4], the “sst2-internalization tested in vitro” value is “Antagonist”.
